Data set [1] deals with T1, FXR ligand binding domain (Homo sapiens, UniProt Q96RI1).
T1 construct: expressed in transfected cells; host or cells: HEK293 (DSMZ), transient transfection of pCMV-BD-FXR-LBD, pFR-Luc and pRL-CMV
T1 sequence (Q96RI1 187-472 isoform Q96RI1-2): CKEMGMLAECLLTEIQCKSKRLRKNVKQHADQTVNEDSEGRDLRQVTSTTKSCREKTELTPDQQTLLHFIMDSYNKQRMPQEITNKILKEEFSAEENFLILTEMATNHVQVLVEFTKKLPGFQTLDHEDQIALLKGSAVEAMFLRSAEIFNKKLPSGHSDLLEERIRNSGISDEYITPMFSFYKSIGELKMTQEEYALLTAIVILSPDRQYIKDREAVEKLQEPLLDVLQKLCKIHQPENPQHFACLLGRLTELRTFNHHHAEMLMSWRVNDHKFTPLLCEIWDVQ
As to the kind of experiment: Mammalian one hybrid (M1H) Gal4 reporter assay in HEK293 cells. To be noted: Gal4-FXR-LBD luciferase reporter, 16 hours. It is filed as cell-based. The method, then:
Determination of a ligand mediated Gal4 promoter driven transactivation to quantify ligand binding mediated activation of FXR was performed as follows.
The cDNA part encoding the FXR ligand binding domain was cloned into vector pCMV-BD (Stratagene) as a fusion to the yeast GAL4 DNA binding domain under the control of the CMV promoter. The amino acid boundaries of the ligand binding domain were amino acids 187-472 of Database entry NM_005123 (RefSeq). The plasmid pFR-Luc (Stratagene) was used as the reporter plasmid, containing a synthetic promoter with five tandem repeats of the yeast GAL4 binding sites, driving the expression of the Photinus pyralis (American firefly) luciferase gene as the reporter gene. In order to improve experimental accuracy the plasmid pRL-CMV (Promega) was cotransfected. pRL-CMV contains the constitutive CMV promoter, controlling the expression of the Renilla reniformis luciferase. All Gal4 reporter gene assays were done in HEK293 cells (obtained from DSMZ, Braunschweig, Germany) grown in MEM with L-Glutamine and Earle's BSS supplemented with 10% fetal bovine serum, 0.1 mM nonessential amino acids, 1 mM sodium pyruvate, and 100 units Penicillin/[…] per mL at about 37° C. in 5% CO2. Medium and supplements were obtained from Invitrogen. For the assay, 5×10^5 cells were plated per well in 96 well plates in 100 μl per well MEM without Phenol Red and L-Glutamine and with Earle's BSS supplemented with 10% charcoal/dextran treated FBS (HyClone, South Logan, Utah), 0.1 mM nonessential amino acids, 2 mM glutamine, 1 mM sodium pyruvate, and 100 units Penicillin/[…] per mL, incubated at about 37° C. in 5% CO2. The following day the cells were >90% confluence. […] Cells were incubated for additional 16 hours before firefly and renilla luciferase activities were measured sequentially in the same cell extract using a Dual-Light-Luciferase-Assay system (Dyer et al., Anal. Biochem. 2000, 282, 158-161). […]
A general note: A reporter such as luciferase makes a cellular process visible.

A further data set concerns the target T2, CYP2B6 (Homo sapiens, UniProt P20813).
T2 construct: from tissue; host or cells: human liver microsomes
T2 sequence (P20813 1-491): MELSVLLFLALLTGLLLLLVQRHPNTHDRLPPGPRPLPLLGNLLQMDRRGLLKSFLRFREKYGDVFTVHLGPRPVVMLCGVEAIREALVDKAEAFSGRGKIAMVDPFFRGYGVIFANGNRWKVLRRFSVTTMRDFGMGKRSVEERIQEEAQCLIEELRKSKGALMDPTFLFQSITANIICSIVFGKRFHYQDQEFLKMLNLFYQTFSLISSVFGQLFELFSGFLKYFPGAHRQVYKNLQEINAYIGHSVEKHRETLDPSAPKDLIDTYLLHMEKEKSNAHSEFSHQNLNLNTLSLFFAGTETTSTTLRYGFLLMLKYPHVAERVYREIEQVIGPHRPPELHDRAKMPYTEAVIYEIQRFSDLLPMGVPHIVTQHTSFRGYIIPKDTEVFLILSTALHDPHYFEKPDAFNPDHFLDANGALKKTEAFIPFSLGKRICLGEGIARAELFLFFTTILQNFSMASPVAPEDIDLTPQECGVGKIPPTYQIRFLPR
Put plainly: CYP2B6 inhibition in human liver microsomes (bupropion probe). It is filed as in vitro ADME. The settings on record: human liver microsomes 0.1 mg/mL, bupropion 110 μM, 0.1-25 μM compound. The method, then:
The compound of Formula (I) (Example 1) was assessed for CYP2C8, CYP3A4, and CYP2B6 inhibition and was compared against Comparative Example 1.
Six test compound concentrations (0.1, 0.25, 1, 2.5, 10, 25 μM in DMSO; final DMSO concentration 0.3%) are incubated with human liver microsomes (0.1 mg/mL) and NADPH (1 mM) in the presence of the probe substrate bupropion (110 μM) for 5 min at 37° C. The selective CYP2B6 inhibitor, ticlopidine, is screened alongside the test compounds as a positive control.
For each of the CYP2B6, CYP2C8, and CYP3A4 incubations, the reactions were terminated by methanol addition. The samples were then centrifuged and analyzed by LC-MS/MS. Formic acid in deionised water (final concentration 0.1%) containing internal standard was added to the final sample prior to analysis. A decrease in the formation of the metabolites compared to vehicle control was used to calculate IC50.
In general terms: Microsomes from liver hold many membrane-bound enzymes, among them those of drug oxidation.

For orientation: EC50 means the concentration giving half of the maximal effect. High values mean weaker potency, low ones greater potency.

In data set [1], `O=C(O)c1ccc(N2CC(O)(c3ccc(OCc4c(-c5c(Cl)cccc5Cl)noc4C4CC4)cc3Cl)C2)nc1` [Comparative Example 2] yielded an EC50 of 2 nM.
The molecule `O=C(O)c1cnc(N2CC(O)(c3ccc(OCc4c(-c5c(Cl)cc(F)cc5Cl)noc4C4CC4)cc3Cl)C2)c(F)c1` [Comparative Example 1, 6-(3-(2-chloro-4-((5-cyclopropyl-3-(2,6-dichloro-4-fluorophenyl)isoxazol-4-yl)methoxy)phenyl)-3-hydroxyazetidin-1-yl)-5-fluoronicotinic acid] came in with an EC50 in data set [1] of 1.2 nM. Moreover, on CYP2B6, the CYP2B6 inhibition entry is “inhibited CYP2B6”.
For `O=C(O)c1ccc(N2CC(O)(c3ccc(OCc4c(-c5c(Cl)cc(F)cc5Cl)noc4C4CC4)cc3Cl)C2)nc1` [Example 1, 6-(3-(2-chloro-4-((5-cyclopropyl-3-(2,6-dichloro-4-fluorophenyl)isoxazol-4-yl)methoxy)phenyl)-3-hydroxyazetidin-1-yl)nicotinic acid], the EC50 in data set [1] came to 5.5 nM. In addition, the CYP2B6 inhibition result on CYP2B6 is “did not inhibit CYP2B6”.

(Values after US20220204491A1, “FXR (NR1H4) MODULATING COMPOUNDS” (Gilead Sciences, Inc., priority 2019, published 2022).)
